In publication PMC4022547 (Molecular Brain, 2014):

Key:
[1] = biological target: hα6(A112V) + hβ4 + hβ3 nAChR (Homo sapiens, UniProt P30926+Q15825, A112V); conditions: 100 μM nicotine; oocytes clamped at −70 mV
Method: (§1) We planned to introduce identical amounts of cRNA, presumably producing equal amounts of each subunit protein, into oocytes largely due to lack of information about the levels of mRNA for each subunits that compose α6*-nAChRs in neurons or other cells. Concentrations of cRNAs for each nAChR α and β subunits (WT, mutant or variant) were adjusted to 500 ng μL^−1. We provisionally assumed that hα6 or its variants in association with hβ2 or hβ4 subunits would form complexes having 2:3 and/or 3:2 ratios of the indicated subunits and that oocytes also injected with WT or mutant form of β3 subunits (i.e., β3^V9’S) would express nAChR with 2:2:1 ratios of α:β:(β3 or β3^V9’S) subunits. For expression of binary nAChRs (i.e., two subunit containing nAChRs; α + β but not β3) cRNA mixtures were prepared by mixing 1 μL of cRNA for each subunit and an additional μL of RNAse free water (i.e., total volume 3 μL). Similarly for expression of ternary nAChRs [i.e., three subunit containing nAChRs; (α + β) + (β3 or β3^V9’S)] cRNA mixtures were prepared by mixing 1 μL of cRNA for each subunit. Several preparations of each mixture were prepared and stored at −80°C until further use. Injection of 138 nL of cRNA, out of 3 μL cRNA mixtures, into each oocyte would deliver ~23 ng of cRNA for each subunit whether binary or ternary nAChRs are expressed.
(§2) Two to 5 days after injection, oocytes were placed in a small-volume chamber and continuously perfused with OR2. The chamber was grounded through an agarose bridge. The oocytes were voltage-clamped at −70 mV (unless otherwise noted) to measure agonist or antagonist induced currents using Axoclamp 900A and pClamp 10.2 software (Molecular Devices, Sunnyvale, CA). The current signal was low-pass filtered at 10 Hz with the built-in low-pass Bessel filter in the Axoclamp 900A and digitized at 20 Hz with Axon Digidata1440A and pClamp10. […] Drugs (agonists and antagonists) were prepared daily in OR2. Drug was applied using a Valvelink 8.2 perfusion system (Automate scientific, Berkeley, CA). […] Then for the purpose of comparison electrophysiological recordings were performed in a given day in a given batch of oocytes following the same order of injections. […] All hβ4*-nAChR recordings were done in similar conditions to facilitate comparisons between hα6hβ4- and hα6hβ4hβ3-nAChRs. All electrophysiological measurements were conducted or checked in at least two batches of oocytes.
(§3) Raw data was collected and processed in part using pClamp 10.2 (Molecular Devices, Sunnyvale, CA), Origin 7.5 (OriginLab Corporation, Northampton, MA) and a spreadsheet (Excel; Microsoft, Bellevue, WA). Peak current amplitudes (Imax) are reported as mean ± SEM (for results from at least three oocytes, i.e., n = 3).

[2] = biological target: hα6(D199Y) + codon optimized hβ2 + hβ3^V9’S nAChR (Homo sapiens, UniProt P17787+Q15825, D199Y); conditions: 100 μM nicotine; oocytes clamped at −70 mV
Method: as §1, §2, §3

[3] = biological target: hα6(E101K) + codon optimized hβ2 + hβ3^V9’S nAChR (Homo sapiens, UniProt P17787+Q15825, E101K); conditions: 100 μM nicotine; oocytes clamped at −70 mV
Method: as §1, §2, §3

[4] = biological target: hα6(E101K) + hβ4 + hβ3 nAChR (Homo sapiens, UniProt P30926+Q15825, E101K); conditions: 100 μM nicotine; oocytes clamped at −70 mV
Method: as §1, §2, §3

[5] = biological target: hα6(I226T) + codon optimized hβ2 + hβ3^V9’S nAChR (Homo sapiens, UniProt P17787+Q15825, I226T); conditions: 100 μM nicotine; oocytes clamped at −70 mV
Method: as §1, §2, §3

[6] = biological target: hα6(N46K) + hβ4 + hβ3 nAChR (Homo sapiens, UniProt P30926+Q15825, N46K); conditions: 100 μM nicotine; oocytes clamped at −70 mV
Method: as §1, §2, §3

[7] = biological target: hα6(R96H) + codon optimized hβ2 + hβ3^V9’S nAChR (Homo sapiens, UniProt P17787+Q15825, R96H); conditions: 100 μM nicotine; oocytes clamped at −70 mV
Method: as §1, §2, §3

[8] = tested on: hα6(S233C) + WT hβ2 + hβ3^V9’S nAChR; conditions: 100 μM nicotine; higher, p < 0.05
Method: as §1, §2, §3

[9] = biological target: hα6(S233C) + codon optimized hβ2 + hβ3^V9’S nAChR (Homo sapiens, UniProt P17787+Q15825, S233C); conditions: 100 μM nicotine; oocytes clamped at −70 mV
Method: as §1, §2, §3

hα6 + hβ4 + hβ3 nAChR = hα6 + hβ4 + hβ3 nAChR (Homo sapiens, UniProt P30926+Q15825); test: Oocyte two-electrode voltage clamp; type: cell-based
Method: as §1, §2, §3

hα6 + hβ4 nAChR = hα6 + hβ4 nAChR (Homo sapiens, UniProt P30926+Q15825); test: Oocyte two-electrode voltage clamp; type: cell-based
Method: as §1, §2, §3

[10] = biological target: hα6(A184D) + hβ4 + hβ3 nAChR (Homo sapiens, UniProt P30926+Q15825, A184D); test: Oocyte two-electrode voltage clamp; type: cell-based
Method: as §1, §2, §3

hα6(A184D) + hβ4 nAChR = hα6(A184D) + hβ4 nAChR (Homo sapiens, UniProt P30926+Q15825, A184D); test: Oocyte two-electrode voltage clamp; type: cell-based
Method: as §1, §2, §3

[11] = biological target: T1, hα6(R96H) + hβ4 + hβ3 nAChR (Homo sapiens, UniProt P30926+Q15825, R96H); test: Oocyte two-electrode voltage clamp; type: cell-based
T1 construct: Full length capped mRNA (i.e., cRNA) was transcribed from linearized plasmids; expressed in transfected cells; host or cells: Xenopus laevis oocytes injected with cRNA
Method: as §1, §2, §3

hα6(S233C) + hβ4 nAChR = hα6(S233C) + hβ4 nAChR (Homo sapiens, UniProt P30926+Q15825, S233C); test: Oocyte two-electrode voltage clamp; type: cell-based
Method: as §1, §2, §3

[12] = 100 μM nicotine, oocytes clamped at −70 mV

hα6 + hβ4 + hβ3 nAChR, sequence (Q15825 26-494): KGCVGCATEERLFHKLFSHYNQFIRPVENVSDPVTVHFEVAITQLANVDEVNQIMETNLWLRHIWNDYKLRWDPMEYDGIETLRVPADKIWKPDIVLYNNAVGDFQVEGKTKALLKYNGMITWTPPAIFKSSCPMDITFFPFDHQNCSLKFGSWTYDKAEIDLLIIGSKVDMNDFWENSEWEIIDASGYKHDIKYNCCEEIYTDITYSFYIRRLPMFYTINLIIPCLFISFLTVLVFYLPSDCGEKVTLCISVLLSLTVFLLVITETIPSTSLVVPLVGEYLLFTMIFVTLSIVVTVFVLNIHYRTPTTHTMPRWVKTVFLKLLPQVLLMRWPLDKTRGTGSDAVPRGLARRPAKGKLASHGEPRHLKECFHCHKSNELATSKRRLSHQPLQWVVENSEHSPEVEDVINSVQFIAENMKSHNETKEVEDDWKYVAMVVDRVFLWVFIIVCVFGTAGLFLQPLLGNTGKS
hα6 + hβ4 + hβ3 nAChR, sequence (P30926 22-498): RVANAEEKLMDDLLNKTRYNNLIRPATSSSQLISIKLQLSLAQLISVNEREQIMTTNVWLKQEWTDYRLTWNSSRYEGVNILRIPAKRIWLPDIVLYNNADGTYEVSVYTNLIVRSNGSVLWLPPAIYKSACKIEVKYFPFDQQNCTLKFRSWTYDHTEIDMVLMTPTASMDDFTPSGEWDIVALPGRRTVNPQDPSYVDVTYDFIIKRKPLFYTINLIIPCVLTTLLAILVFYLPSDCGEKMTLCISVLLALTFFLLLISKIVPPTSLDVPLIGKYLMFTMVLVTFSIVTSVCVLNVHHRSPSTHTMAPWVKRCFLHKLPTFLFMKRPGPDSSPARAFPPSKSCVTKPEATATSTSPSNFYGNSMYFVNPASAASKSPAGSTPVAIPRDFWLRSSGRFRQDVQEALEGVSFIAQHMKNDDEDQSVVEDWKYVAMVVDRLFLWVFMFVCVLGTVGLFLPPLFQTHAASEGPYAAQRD
hα6 + hβ4 + hβ3 nAChR, sequence (Q05901 25-458 partner limits assumed): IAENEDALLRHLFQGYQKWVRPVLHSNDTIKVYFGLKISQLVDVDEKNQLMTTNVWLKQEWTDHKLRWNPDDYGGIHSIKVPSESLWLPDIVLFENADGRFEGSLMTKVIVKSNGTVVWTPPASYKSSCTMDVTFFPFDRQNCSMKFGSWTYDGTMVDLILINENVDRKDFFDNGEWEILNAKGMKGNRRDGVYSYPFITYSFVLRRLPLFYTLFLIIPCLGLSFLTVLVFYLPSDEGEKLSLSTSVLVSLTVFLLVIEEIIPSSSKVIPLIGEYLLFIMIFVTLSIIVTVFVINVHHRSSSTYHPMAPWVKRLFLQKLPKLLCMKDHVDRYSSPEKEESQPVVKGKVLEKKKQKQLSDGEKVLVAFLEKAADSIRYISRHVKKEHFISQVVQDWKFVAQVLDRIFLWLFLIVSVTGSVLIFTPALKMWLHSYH
hα6(A184D) + hβ4 nAChR, sequence (Q15825 26-494 A184D): as the sequence (Q15825 26-494) above, with A159D counted along it
hα6(A184D) + hβ4 nAChR, sequence (P30926 22-498): as the sequence (P30926 22-498) above
hα6(A184D) + hβ4 + hβ3 nAChR, sequence (Q15825 26-494 A184D): as the sequence (Q15825 26-494) above, with A159D counted along it
hα6(A184D) + hβ4 + hβ3 nAChR, sequence (P30926 22-498): as the sequence (P30926 22-498) above
hα6(A184D) + hβ4 + hβ3 nAChR, sequence (Q05901 25-458 partner limits assumed): as the sequence (Q05901 25-458 partner limits assumed) above
hα6(S233C) + hβ4 nAChR, sequence (Q15825 26-494 S233C): as the sequence (Q15825 26-494) above, with S208C counted along it
hα6(S233C) + hβ4 nAChR, sequence (P30926 22-498): as the sequence (P30926 22-498) above

Q: Which results are given for `CN1CCC[C@H]1c1cccnc1` [nicotine, L-nicotine]?
A: Mean (±SE) peak current response [1]: 482 ± 59 nA; peak current (Imax, mean ± SE) [2]: 2076 ± 68 nA; peak current (Imax, mean ± SE) [3]: 551 ± 156 nA; Mean (±SE) peak current response [4]: 467 ± 54 nA; peak current (Imax, mean ± SE) [5]: 753 ± 137 nA; Mean (±SE) peak current response [6]: 307 ± 39 nA; peak current (Imax, mean ± SE) [7]: 1075 ± 175 nA; peak current response relative to hα6hβ2hβ3^V9’S-nAChRs [8]: 2-5 fold; peak current (Imax, mean ± SE) [9]: 1582 ± 221 nA; EC50 (hα6 + hβ4 + hβ3 nAChR): 12 µM; Imax conc. (concentration where maximal peak current achieved) (hα6 + hβ4 + hβ3 nAChR): 100 µM; nH ± SE (Hill coefficient) (hα6 + hβ4 + hβ3 nAChR): 1.5±0.45; increase of peak current response relative to hα6hβ4-nAChRs (hα6 + hβ4 + hβ3 nAChR; 100 μM nicotine): ~ 12 fold; Mean (±SE) peak current response (hα6 + hβ4 + hβ3 nAChR; [12]): 407 ± 34 nA; Imax conc. (concentration where maximal peak current achieved) (hα6 + hβ4 nAChR): 100 µM; peak current (Imax, mean ± SE) (hα6 + hβ4 nAChR; [12]): 35 ± 2 nA; EC50 [10]: 4.9 µM; Imax conc. (concentration where maximal peak current achieved) [10]: 100 µM; nH ± SE (Hill coefficient) [10]: 1.1±0.11; Mean (±SE) peak current response [10, 12]: 554 ± 108 nA; EC50 (hα6(A184D) + hβ4 nAChR): 2.7 µM; Imax conc. (concentration where maximal peak current achieved) (hα6(A184D) + hβ4 nAChR): 100 µM; nH ± SE (Hill coefficient) (hα6(A184D) + hβ4 nAChR): 1.1±0.15; peak current (Imax, mean ± SE) (hα6(A184D) + hβ4 nAChR; [12]): 122 ± 12 nA; EC50 [11]: 8.2 µM; Imax conc. (concentration where maximal peak current achieved) [11]: 100 µM; nH ± SE (Hill coefficient) [11]: 1.2±0.13; Mean (±SE) peak current response [11, 12]: 513 ± 42 nA; EC50 (hα6(S233C) + hβ4 nAChR): 6.2 µM; Imax conc. (concentration where maximal peak current achieved) (hα6(S233C) + hβ4 nAChR): 100 µM; nH ± SE (Hill coefficient) (hα6(S233C) + hβ4 nAChR): 1.4±0.13; peak current (Imax, mean ± SE) (hα6(S233C) + hβ4 nAChR; [12]): 73 ± 20 nA
